{"source": "patent US11298367B2", "about": "“Prodrugs of substituted triazole derivatives and uses thereof” (Bayer Aktiengesellschaft, priority 2017, dated 2022)", "assay_type_in_all_cases": "cell-based", "key": {"human V2 receptor": {"biological_target": "T1, human V2 receptor (Homo sapiens, UniProt P30518)", "T1 construct": "expressed in transfected cells; host or cells: CHO K1 cells expressing firefly luciferase under a CRE-responsive promoter", "T1 sequence (P30518 whole entry)": "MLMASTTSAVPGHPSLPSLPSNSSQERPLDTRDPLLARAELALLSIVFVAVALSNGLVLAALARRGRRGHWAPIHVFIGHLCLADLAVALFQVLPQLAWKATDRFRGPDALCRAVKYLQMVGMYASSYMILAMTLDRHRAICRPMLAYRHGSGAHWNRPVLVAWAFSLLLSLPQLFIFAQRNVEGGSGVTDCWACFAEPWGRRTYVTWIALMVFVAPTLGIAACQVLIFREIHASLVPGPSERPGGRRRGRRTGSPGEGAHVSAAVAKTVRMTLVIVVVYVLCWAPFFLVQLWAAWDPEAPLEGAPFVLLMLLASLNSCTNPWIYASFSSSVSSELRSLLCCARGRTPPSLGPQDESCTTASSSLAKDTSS", "assay": "Cellular in vitro assay for vasopressin receptor activity (V2, CRE-luciferase)", "conditions": "CHO cell line with human V2 receptor, [Arg8]-vasopressin at EC50; values are for the prodrug as such; read-out: IC50 hV2", "method": "B-1. Cellular In Vitro Assay for Determining Vasopressin Receptor Activity\nThe identification of agonists and antagonists of the V1a and V2 vasopressin receptors from humans, rats and dogs as well as the quantification of the activity of the compounds of the invention is carried out using recombinant cell lines. These cell lines originally derive from a hamster's ovary epithelial cell (Chinese Hamster Ovary, CHO K1, ATCC: American Type Culture Collection, Manassas, Va. 20108, USA). The test cell lines constitutively express the human, rat or dog V1a or V2 receptors. In case of the Gaq-coupled V1a receptors, cells are also stably transfected with a modified form of the calcium-sensitive photoproteins aequorin (human and rat V1a) or obelin (dog V1a), which, after reconstitution with the cofactor coelenterazine, emit light when there are increases in free calcium concentrations [Rizzuto R, Simpson A W, Brini M, Pozzan T, Nature 358, 325-327 (1992); Illarionov B A, Bondar V S, Illarionova V A, Vysotski E S, Gene 153 (2), 273-274 (1995)]. The resulting vasopressin receptor cells react to stimulation of the recombinantly expressed Via receptors by intracellular release of calcium ions, which can be quantified by the resulting photoprotein luminescence. The Gs-coupled V2 receptors are stably transfected into cell lines expressing the gene for firefly luciferase under control of a CRE-responsible promoter. Activation of V2 receptors induces the activation of the CRE-responsive promoter via cAMP increase, thereby inducing the expression of firefly luciferase. The light emitted by photoproteins of V1a cell lines as well as the light emitted by firefly luciferase of V2 cell lines corresponds to the activation or inhibition of the respective vasopressin receptor. The bioluminescence of the cell lines is detected using a suitable luminometer [Milligan G, Marshall F, Rees S, Trends in Pharmacological Sciences 17, 235-237 (1996)].\nVasopressin V2 Receptor Cell Lines:\nOn the day before the assay, the cells are plated out in culture medium (DMEM/F12, 2% FCS, 2 mM glutamine, 10 mM HEPES) in 384-well microtiter plates and kept in a cell incubator (96% humidity, 5% v/v CO2, 37C). On the day of the assay, test compounds in various concentrations and the agonist [Arg^8]-vasopressin at EC50 concentration are added together to the wells, and plates are incubated for 3 hours in a cell incubator. Upon addition of the cell lysis reagent Triton™ and the substrate luciferin, luminescence of firefly luciferase is measured in a luminometer.\nTable 1A below lists individual IC50 values for the compounds of the invention (including racemic mixtures as well as separated enantiomers) that were obtained from cell lines transfected with the human V1a or V2 receptor. This means these IC50 values are the values for the prodrug and not for the underlying respective drug as the prodrug is mainly stable under the assay conditions."}, "human V1a receptor": {"biological_target": "T2, human V1a receptor (Homo sapiens, UniProt P37288)", "T2 construct": "expressed in transfected cells; host or cells: CHO K1 (Chinese hamster ovary), also stably transfected with a modified aequorin", "T2 sequence (P37288 whole entry)": "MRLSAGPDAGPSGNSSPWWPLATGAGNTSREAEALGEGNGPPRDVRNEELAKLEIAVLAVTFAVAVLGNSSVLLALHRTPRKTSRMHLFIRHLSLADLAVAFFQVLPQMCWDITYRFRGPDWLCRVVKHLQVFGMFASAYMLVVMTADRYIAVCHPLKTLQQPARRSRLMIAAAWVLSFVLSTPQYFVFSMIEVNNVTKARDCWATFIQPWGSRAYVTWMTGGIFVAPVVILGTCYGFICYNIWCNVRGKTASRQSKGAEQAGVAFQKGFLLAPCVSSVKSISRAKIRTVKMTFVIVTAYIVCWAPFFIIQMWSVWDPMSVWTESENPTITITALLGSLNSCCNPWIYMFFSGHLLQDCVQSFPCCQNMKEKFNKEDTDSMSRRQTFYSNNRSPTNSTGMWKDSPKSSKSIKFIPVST", "assay": "Cellular in vitro assay for vasopressin receptor activity (V1a, aequorin luminescence)", "conditions": "for IC50: CHO cell line with human V1a receptor, [Arg8]-vasopressin at EC50, values are for the prodrug as such, read-out: IC50 hV1a; for ratio IC50 hV2/hV1a: selectivity ratio hV2/hV1a"}, "human platelets": {"test_system": "human platelets", "assay": "Inhibition of vasopressin induced aggregation of human platelets", "conditions": "human platelet rich plasma, AVP 100 nM", "method": "B-5. Inhibition of Vasopressin Induced Aggregation of Human Platelets for Verification of Prodrug Conversion into Drug\nHuman platelets endogenously express the V1a receptor. […] Therefore, platelets enriched from human blood may serve as a V1a expressing tissue for pharmacological studies with vasopressin antagonists.\nTo verify the conversion of prodrugs into the respective drugs, the prodrugs are incubated with and without alkaline phosphatase. Cleavage of the phosphate moiety by alkaline phosphatase converts the prodrug into the drug. As prodrug and underlying respective drug show different IC50 values, the value of the prodrug after alkaline phosphatase treatment resembles the IC50 of the respective drug.\n100 μl of test compound at a concentration of 100 μM are incubated for 15 min with 500 units alkaline phosphatase at 37° C. in modified Tyrode buffer (134 mM NaCl, […], 0.34 mM NaH2PO4*H2O, 2.9 mM KCl, 5 mM HEPES, 5 mM Glucose) and stored at 4° C. until further use in the platelet aggregation assay.\nPlatelet-rich plasma (PRP) is obtained by centrifugation of the blood sample at 140 g for 20 min at room temperature. The resulting pellet is discarded and the PRP further centrifuged (11.000 rpm, 1 min) to produce platelet-poor plasma (PPP). Platelet aggregation is measured turbidimetrically using an aggregometer (APACT 4). The reaction is followed by monitoring changes in light transmission on 178 μL PRP aliquots, under continuous stirring at 37° C., against PPP control. Various concentrations of vasopressin antagonists (in 2 μL) are added to PRP 5 min before the addition of 20 μL AVP (final concentration 100 nM). The inhibitory effects of the compounds are determined by measuring the maximal amplitude of the aggregation curve compared with the control response. IC50 values are calculated on the basis of a concentration-response inhibition curve by an iterative nonlinear regression program. All values are expressed as mean values (Table 3A)."}, "[1]": {"conditions": "with alkaline phosphatase, read-out: IC50 with AP"}, "[2]": {"conditions": "without alkaline phosphatase, read-out: IC50 without AP"}}, "note": "Read-outs that look alike come from different tables or passages of the source.", "data": [{"compound": "NC(=O)c1nc(Cn2nc(-c3ccc(Cl)cc3)n(C[C@H](OP(=O)(O)O)C(F)(F)F)c2=O)nn1-c1ccccc1C(F)(F)F", "note": "[Example 10, (2S)-3-[1-({5-Carbamoyl-1-[2-(trifluoromethyl)phenyl]-1H-1,2,4-triazol-3-yl}methyl)-3-(4-chlorophenyl)-5-oxo-1,5-dihydro-4H-1,2,4-triazol-4-yl]-1,1,1-trifluoropropan-2-yl Dihydrogen Phosphate]", "values": [{"measurement": "IC50", "setting": "human V2 receptor", "value": 0.047, "unit": "µM"}, {"measurement": "IC50", "setting": "human V1a receptor", "value": 0.0106, "unit": "µM"}, {"measurement": "ratio IC50 hV2/hV1a", "setting": "human V1a receptor", "value": 4.4}]}, {"compound": "NC(=O)c1nc(Cn2nc(-c3ccc(Cl)cc3)n(C[C@H](OP(=O)(O)O)C(F)(F)F)c2=O)nn1-c1ncccc1C(F)(F)F", "note": "[Example 1, (2S)-3-[1-({5-Carbamoyl-1-[3-(trifluoromethyl)pyridin-2-yl]-1H-1,2,4-triazol-3-yl}methyl)-3-(4-chlorophenyl)-5-oxo-1,5-dihydro-4H-1,2,4-triazol-4-yl]-1,1,1-trifluoropropan-2-yl Dihydrogen Phosphate]", "values": [{"measurement": "IC50", "setting": "human platelets; [1]", "value": 0.0127, "unit": "µM"}, {"measurement": "IC50", "setting": "human platelets; [2]", "value": 0.145, "unit": "µM"}, {"measurement": "IC50", "setting": "human V2 receptor", "value": 0.193, "unit": "µM"}, {"measurement": "IC50", "setting": "human V1a receptor", "value": 0.0157, "unit": "µM"}, {"measurement": "ratio IC50 hV2/hV1a", "setting": "human V1a receptor", "value": 12.3}]}, {"compound": "NC(=O)c1nc(Cn2nc(-c3ccc(Cl)cc3)n(C[C@H](O)C(F)(F)F)c2=O)nn1-c1ncccc1C(F)(F)F", "note": "[Example 4A, 3-({3-(4-Chlorophenyl)-5-oxo-4-[(2S)-3,3,3-trifluoro-2-hydroxypropyl]-4,5-dihydro-1H-1,2,4-triazol-1-yl}methyl)-1-[3-(trifluoromethyl)pyridin-2-yl]-1H-1,2,4-triazole-5-carboxamide]", "values": [{"measurement": "IC50", "setting": "human platelets; [1]", "value": 0.0102, "unit": "µM"}, {"measurement": "IC50", "setting": "human platelets; [2]", "value": 0.0211, "unit": "µM"}, {"measurement": "ratio IC50 hV2/hV1a", "setting": "human V1a receptor", "value": 141.0}]}, {"compound": "NC(=O)c1nc(Cn2nc(-c3ccc(Cl)cc3)n(C[C@H](OP(=O)(O)O)C(F)(F)F)c2=O)nn1-c1ncccc1Cl", "note": "[Example 17, (2S)-3-[1-{[5-Carbamoyl-1-(3-chloropyridin-2-yl)-1H-1,2,4-triazol-3-yl]methyl}-3-(4-chloro-phenyl)-5-oxo-1,5-dihydro-4H-1,2,4-triazol-4-yl]-1,1,1-trifluoropropan-2-yl Dihydrogen Phosphate]", "values": [{"measurement": "IC50", "setting": "human V2 receptor", "value": 0.13, "unit": "µM"}, {"measurement": "IC50", "setting": "human V1a receptor", "value": 0.0098, "unit": "µM"}, {"measurement": "ratio IC50 hV2/hV1a", "setting": "human V1a receptor", "value": 13.3}]}]}
